Results reported in US10508089B2, “Use of N-(1,3,4-Oxadiazol-2-yl)arylcarboxamides or their salts for controlling unwanted plants in areas of transgenic crop plants being tolerant to HPPD inhibitor herbicides” (BASF SE, priority 2014, dated 2019).

How the values were obtained:
FMP 37 SEQ ID No 9 = FMP 37 SEQ ID No 9 (Blepharisma japonicum, UniProt A8R3H6); test: Determination of HPPD activity in presence of N-(1,3,4-Oxadiazol-2-yl)arylcarboxamides (pI50); assay type: biochemical; settings: negative log of molar concentration; inhibitor 0.1 to 100 μM; room temperature; 600 μM HPP
Sequence of FMP 37 SEQ ID No 9 (A8R3H6 entry or part of it): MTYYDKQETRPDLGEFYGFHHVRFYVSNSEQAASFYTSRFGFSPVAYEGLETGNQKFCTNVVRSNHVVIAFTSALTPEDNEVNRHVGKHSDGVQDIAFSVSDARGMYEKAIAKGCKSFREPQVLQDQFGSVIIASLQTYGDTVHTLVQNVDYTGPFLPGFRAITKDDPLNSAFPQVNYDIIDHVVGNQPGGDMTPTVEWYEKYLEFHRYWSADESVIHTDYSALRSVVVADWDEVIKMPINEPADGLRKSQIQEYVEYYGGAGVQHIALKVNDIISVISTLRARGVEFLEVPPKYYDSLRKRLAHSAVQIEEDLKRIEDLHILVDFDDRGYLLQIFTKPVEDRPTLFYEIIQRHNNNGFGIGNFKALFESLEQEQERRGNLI
Procedure: (§1) HPPD activity was measured at room temperature by adding appropriate amounts of HPPD to a solution of 200 mM Tris-HCl pH 7.6, 10 mM ascorbate, 20 μM FeSO4, 650 units of catalase, 8 μg HGA dioxygenase (HGA: homogentisate) and 600 μM HPP in a total volume of 1 ml. Initial reaction rates in the absence or presence of inhibitors were determined from the increase in absorbance at 318 nm due to the formation of maleylacetoacetate (ϵ318=11,900 M−1 cm−1). pI50-values (the negative log values of the concentration of inhibitor necessary to inhibit 50% of the enzyme activity in molar concentration were determined from dose-response plots of HPPD activity versus inhibitor concentrations tested (0.1 to 100 μM) using the 4 Parameter Logistic Model or Sigmoidal Dose-Response Model of the ID Business Solutions Ltd. XLfit software suite. Due to the UV absorption of the HPPD inhibitors tested, inhibitor concentrations >100 μM could not be tested. In cases, the symbol “>” is used this means that the value was far higher than the one indicated but could not be precisely calculated within in the range of concentration of inhibitor tested.
(§2) In the 1st column of Table 8, the chemical compound employed in the assay is named (according to the numbering of the Tables 1 to 7, above). In columns 2, 3, 4, and 5 the pI50-values of the corresponding chemical compounds against various HPPD enzymes (name and SEQ ID Nos are indicated, respectively) are given.

Avena HPPD SEQ ID No 2 = Avena HPPD SEQ ID No 2 (Avena sativa, UniProt A0ACD5V6K6); test: as above; assay type: biochemical; settings: negative log of molar concentration; inhibitor 0.1 to 100 μM; room temperature; 600 μM HPP
Sequence of Avena HPPD SEQ ID No 2 (A0ACD5V6K6 entry or part of it): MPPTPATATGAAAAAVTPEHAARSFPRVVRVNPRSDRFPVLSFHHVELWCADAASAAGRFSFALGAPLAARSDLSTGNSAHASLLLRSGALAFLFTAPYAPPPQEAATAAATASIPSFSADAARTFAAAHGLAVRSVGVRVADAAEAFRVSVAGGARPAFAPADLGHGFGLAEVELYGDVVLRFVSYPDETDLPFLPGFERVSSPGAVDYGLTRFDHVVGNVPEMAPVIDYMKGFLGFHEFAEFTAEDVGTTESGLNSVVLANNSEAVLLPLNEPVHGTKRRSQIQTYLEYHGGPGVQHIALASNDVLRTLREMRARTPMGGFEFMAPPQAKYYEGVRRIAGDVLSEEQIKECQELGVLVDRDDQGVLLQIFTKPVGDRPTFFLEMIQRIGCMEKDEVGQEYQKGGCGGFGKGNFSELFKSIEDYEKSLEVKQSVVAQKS
Procedure: as §1, §2

Cc1nnc(NC(=O)c2ccc(C(F)(F)F)c(S(C)(=O)=O)c2C)o1 [Compound 2-145]
IC50 (FMP 37 SEQ ID No 9): 10 µM
IC50 (Avena HPPD SEQ ID No 2): 1580 nM
